Results: ChEMBL document CHEMBL1151004, “The synthesis and structure activity relationships of enantiomerically pure hydroxylated oxotremorine derivatives” (Bioorg Med Chem Lett, 1992)

Tests used:
[1] = target: Muscarinic acetylcholine receptor; test: In vitro ability to displace 3H-cis-methyltrimethylammoniummethyl-1,3-dioxolane [3H]CD) from rat cortical Muscarinic acetylcholine receptor in competition assay; format: protein assay
[2] = target: Muscarinic acetylcholine receptor; test: In vitro ability to displace [3H]quinuclidinyl benzilate [3H]QNB) from rat cortical Muscarinic acetylcholine receptor in competition assay; format: protein assay
[3] = Compound was evaluated for ratio of 3H-QNB, [3H]CD

Row | SMILES | Ki [1] [µM] | Ki [2] [µM] | Ratio [3]
1 | O=C1C[C@@H](O)CN1CC#CCN1CCCC1 | 0.078 | 3 | 38
2 | O=C1[C@@H](O)CCN1CC#CCN1CCCC1 | 0.009 | 1.4 | 150
3 | C[N+](C)(C)CCOC(N)=O |  |  | 2000
4 | O=C1[C@H](O)CCN1CC#CCN1CCCC1 | 0.12 | 2.1 | 17
5 | O=C1CCCN1CC#CCN1CC[C@@H](O)C1 | 2.38 | 1.8 | 0.7
6 | O=C1CCCN1CC#CCN1CCCC1 |  |  | 120
7 | O=C1CCCN1CC#CCN1CC[C@H](O)C1 | 0.61 | 1.2 | 2
8 | O=C1C[C@H](O)CN1CC#CCN1CCCC1 | 8.56 | 7.5 | 0.9
